Assay results taken from patent US20240336601A1 (Chulalongkorn University, priority 2020, published 2024).

Assays:
[1] = biological target: interaction between PD-1 and PD-L1 (Homo sapiens, UniProt Q9NZQ7); experiment: PD-1/PD-L1 protein-protein interaction assay (ALPHA); format: binding; conditions: 2 nM His-tagged human PD-L1, 0.6 nM PD-1-Fc, AlphaScreen
Procedure: PD-1′PD-L1 Protein-Protein Interaction Assay
Amplified Luminescent Proximity Homogeneous Assay (ALPHA) platform was used to evaluate the ability of the compounds to block the interaction between PD-1 and PD-L1. The assays were performed in half volume white 96-well plate in a final volume of 40 μl. Compounds at various concentrations were preincubated with 2 nM His tagged recombinant human PD-L1 protein and 0.6 nM recombinant PD-1 protein with Fc-tag (both reagents were purchased from AcroBiosystems) for 40 minutes. After the preincubation, 20 μg/mL of Alphascreen Ni chelate donor beads (PerkinElmer, USA) and Protein A acceptor beads (PerkinElmer, USA) were added into the well and incubated under reduced light at 25° C. for 120 minutes. The signal was measured with the EnSight Multimode Plate Reader. IC50 values were calculated from the four-parameter logistic curve fit.

PD-1/PD-L1 interaction = biological target: T1, PD-1/PD-L1 interaction (Homo sapiens, UniProt Q9NZQ7); experiment: PD-1/PD-L1 blockage cell-based bioassay (Jurkat NFAT luciferase / CHO-PDL1 co-culture); conditions: Jurkat NFAT cells co-cultured with CHO-PDL1 cells, 6 h, luminescence
T1 construct: expressed in transfected cells
T1 sequence (Q9NZQ7 19-290): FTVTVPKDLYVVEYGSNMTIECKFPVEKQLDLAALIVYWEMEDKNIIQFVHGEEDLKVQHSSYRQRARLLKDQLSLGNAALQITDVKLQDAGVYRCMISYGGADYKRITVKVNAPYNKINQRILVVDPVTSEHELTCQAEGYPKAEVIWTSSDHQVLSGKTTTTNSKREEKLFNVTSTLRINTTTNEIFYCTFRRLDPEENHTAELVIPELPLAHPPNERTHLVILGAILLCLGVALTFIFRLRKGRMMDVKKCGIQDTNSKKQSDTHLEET

interaction between PD-1 and PD-L1, sequence (Q9NZQ7 19-238 limits assumed): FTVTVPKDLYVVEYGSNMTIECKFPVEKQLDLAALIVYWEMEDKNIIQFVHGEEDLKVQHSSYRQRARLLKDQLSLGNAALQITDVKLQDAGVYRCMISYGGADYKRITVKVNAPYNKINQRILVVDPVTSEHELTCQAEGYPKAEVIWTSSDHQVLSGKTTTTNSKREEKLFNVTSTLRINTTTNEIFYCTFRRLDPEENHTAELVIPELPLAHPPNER

## COc1cc(-n2ccc3c(-c4cccc(-c5ccc(CN6CC(C)(O)C6)c(OC)n5)c4Cl)cccc32)cc(OC)c1CNC[C@@H]1CCC(=O)N1 [Example 35]
[1]
  IC50: 1 to 10 nM
PD-1/PD-L1 interaction
  IC50: 201 to 2000 nM

## COc1cc(-n2ncc3c(-c4cccc(-c5ccc(CNC[C@H]6C[C@@H](O)C6)c(OC)n5)c4Cl)cccc32)cc(OC)c1CN1CC(C)(O)C1 [Example 68, 1-(4-(4-(2-chloro-3-(5-((((cis-3-hydroxycyclobutyl)methyl)amino)methyl)-6-methoxypyridin-2-yl)phenyl)-1H-indazol-1-yl)-2,6-dimethoxybenzyl)-3-methylazetidin-3-ol]
[1]
  IC50: < 1 nM
PD-1/PD-L1 interaction
  IC50: < 200 nM

## Cc1nn(CCNC[C@@H]2CCC(=O)N2)c2ccc(-n3ccc4c(-c5ccc6c(c5)OCCO6)cccc43)cc12 [Example 62, (S)-5-(((2-(5-(4-(2,3-dihydrobenzo[b] [1,4]dioxin-6-yl)-1H-indol-1-yl)-3-methyl-1H-indazol-1-yl)ethyl)amino)methyl)pyrrolidin-2-one]
[1]
  IC50: > 100 nM

## COc1cc(-c2cccc(-c3cccc4c3cnn4-c3cc(OC)c(CN4CC5(CNC(=O)C5)C4)c(OC)c3)c2Cl)cc(F)c1CN(C)C12CCC(C(=O)O)(CC1)CC2 [Example 160, 4-(((2′-chloro-3′-(1-(3,5-dimethoxy-4-((7-oxo-2,6-diazaspiro[3.4]octan-2-yl)methyl)phenyl)-1H-indazol-4-yl)-3-fluoro-5-methoxy-[1,1′-biphenyl]-4-yl)methyl)(methyl)amino)bicyclo[2.2.2]octane-1-carboxylic acid]
[1]
  IC50: < 1 nM
PD-1/PD-L1 interaction
  IC50: < 200 nM

## COc1cc(-n2ncc3c(-c4cccc(-c5ccc(CN6CC7(CNC(=O)C7)C6)c(OC)n5)c4Cl)cccc32)cc(OC)c1CN1CC(C)(O)C1 [Example 79, 2-((6-(2-chloro-3-(1-(4-((3-hydroxy-3-methylazetidin-1-yl)methyl)-3,5-dimethoxyphenyl)-1H-indazol-4-yl)phenyl)-2-methoxypyridin-3-yl)methyl)-2,6-diazaspiro[3.4]octan-7-one]
[1]
  IC50: < 1 nM
PD-1/PD-L1 interaction
  IC50: < 200 nM

## COc1cc(-n2ncc3c(-c4cccc(-c5ccc(CNCCO)c(OC)n5)c4Cl)cccc32)cc(OC)c1CNCCO [Example 129, 2-(((6-(2-chloro-3-(1-(4-(((2-hydroxyethyl)amino)methyl)-3,5-dimethoxyphenyl)-1H-indazol-4-yl)phenyl)-2-methoxypyridin-3-yl)methyl)amino)ethanol]
[1]
  IC50: < 1 nM
PD-1/PD-L1 interaction
  IC50: < 200 nM

## COc1cc(-n2ccc3c(-c4cccc(-c5ccc(CNC[C@@H]6CCC(=O)N6)c(OC)n5)c4Cl)cccc32)cc(OC)c1CN1CC[C@H](O)C1 [Example 83, (S)-5-((((6-(2-chloro-3-(1-(4-(((S)-3-hydroxypyrrolidin-1-yl)methyl)-3,5-dimethoxyphenyl)-1H-indol-4-yl)phenyl)-2-methoxypyridin-3-yl)methyl)amino)methyl)pyrrolidin-2-one]
[1]
  IC50: 1 to 10 nM
PD-1/PD-L1 interaction
  IC50: 201 to 2000 nM

## Cn1cc(-n2ccc3c(-c4ccc5c(c4)OCCO5)cccc32)c2ncc(CNCC(C)(C)C(=O)O)cc21 [Example 25]
[1]
  IC50: > 100 nM

## c1cc(-c2ccc3c(c2)OCCO3)c2ccn(-c3nc4c(s3)CNCC4)c2c1 [Example 59, 2-(4-(2,3-dihydrobenzo[b] [1,4]dioxin-6-yl)-1H-indol-1-yl)-4,5,6,7-tetrahydrothiazolo[5,4-c]pyridine]
[1]
  IC50: > 100 nM

## COc1cc(-n2ncc3c(-c4cccc(-c5nc6cc(CN(C)C78CCC(C(=O)O)(CC7)CC8)cc(C#N)c6o5)c4C)cccc32)cc(OC)c1CN1CC[C@@H](O)C1 [Example 157, (R)-4-(((7-cyano-2-(3-(1-(4-((3-hydroxypyrrolidin-1-yl)methyl)-3,5-dimethoxyphenyl)-1H-indazol-4-yl)-2-methylphenyl)benzo[d]oxazol-5-yl)methyl)(methyl)amino)bicyclo[2.2.2]octane-1-carboxylic acid]
[1]
  IC50: < 1 nM
PD-1/PD-L1 interaction
  IC50: < 200 nM

## COc1cc(-n2ncc3c(-c4cccc(-c5ccc(CN6CC7(CNC(=O)C7)C6)c(OC)n5)c4Cl)cccc32)cc(OC)c1CN1CC[C@@H](O)C1 [Example 133, (R)-2-((6-(2-chloro-3-(1-(4-((3-hydroxypyrrolidin-1-yl)methyl)-3,5-dimethoxyphenyl)-1H-indazol-4-yl)phenyl)-2-methoxypyridin-3-yl)methyl)-2,6-diazaspiro[3.4]octan-7-one]
[1]
  IC50: 1 to 10 nM
PD-1/PD-L1 interaction
  IC50: < 200 nM

## CC(CO)(NCc1ccc(-n2ccc3c(-c4ccc5c(c4)OCCO5)cccc32)cc1OCc1cccc(C#N)c1)C(=O)O (stereo not drawn) [Example 5, 2-((2-((3-cyanobenzyl)oxy)-4-(4-(2,3-dihydrobenzo[b][1,4]dioxin-6-yl)-1H-indol-1-yl)benzyl)amino)-3-hydroxy-2-methylpropanoic acid]
[1]
  IC50: > 100 nM

## COc1cc(-c2c[nH]c3c(-c4ccc5c(c4)OCCO5)cccc23)cc(OC)c1CNC[C@@H]1CCC(=O)N1 [Example 24]
[1]
  IC50: > 100 nM

## COc1nc(N2CCc3c(-c4ccc5c(c4)OCCO5)cccc32)ccc1CNC[C@@H]1CCC(=O)N1 [Example 80, (S)-5-((((6-(4-(2,3-dihydrobenzo[b][1,4]dioxin-6-yl)indolin-1-yl)-2-methoxypyridin-3-yl)methyl)amino)methyl)pyrrolidin-2-one]
[1]
  IC50: > 100 nM

## COc1cc(C(=O)n2ccc3c(-c4ccc5c(c4)OCCO5)cccc32)cc(OC)c1CNC(C)(CO)C(=O)O (stereo not drawn) [Example 7, 2-((4-(4-(2,3-dihydrobenzo[b][1,4]dioxin-6-yl)-1H-indole-1-carbonyl)-2,6-dimethoxybenzyl)amino)-3-hydroxy-2-methylpropanoic acid]
[1]
  IC50: > 100 nM

## COc1nc(-n2ccc3c(-c4ccc5c(c4)OCCO5)cccc32)ccc1CN[C@@H](CO)C(=O)O [Example 10]
[1]
  IC50: > 100 nM

## COc1nc(-n2ccc3c(-c4ccc5c(c4)OCCO5)cccc32)ccc1CN1CC2(C1)CN(C(C)=O)C2 [Example 58, 1-(6-((6-(4-(2,3-dihydrobenzo[b][1,4]dioxin-6-yl)-1H-indol-1-yl)-2-methoxypyridin-3-yl)methyl)-2,6-diazaspiro[3.3]heptan-2-yl)ethanone]
[1]
  IC50: > 100 nM

## COc1cc(-n2ccc3c(-c4ccc5c(c4)OCCO5)cccc32)cc(OC)c1CN1C[C@H](O)C[C@@H]1C(=O)O [Example 2, (2R,4R)-1-(4-(4-(2,3-dihydrobenzo[b][1,4]dioxin-6-yl)-1H-indol-1-yl)-2,6-dimethoxybenzyl)-4-hydroxypyrrolidine-2-carboxylic acid]
[1]
  IC50: > 100 nM

## COc1cc(-n2ccc3c(-c4ccc5c(c4)OCCO5)cccc32)cc(OC)c1CNC1CNC(=O)C1 (stereo not drawn) [Example 16]
[1]
  IC50: > 100 nM

## Cc1cc2cc(CNC[C@@H]3CCC(=O)N3)cnc2c(-n2ccc3c(-c4ccc5c(c4)OCCO5)cccc32)n1 [Example 63, (S)-5-((((8-(4-(2,3-dihydrobenzo[b][1,4]dioxin-6-yl)-1H-indol-1-yl)-6-methyl-1,7-naphthyridin-3-yl)methyl)amino)methyl)pyrrolidin-2-one]
[1]
  IC50: > 100 nM

## COc1nc(-n2ccc3c(-c4ccc5c(c4)OCCO5)cccc32)ccc1CN1CC(C)(O)C1 [Example 12, ((6-(4-(2,3-dihydrobenzo[b][1,4]dioxin-6-yl)-1H-indol-1-yl)~2~methoxypyridin-3-yl)methyl)-L-serine]
[1]
  IC50: > 100 nM

## COc1cc(-n2ccc3c(-c4ccc5c(c4)OCCO5)cccc32)cnc1CNC[C@@H]1CCC(=O)N1 [Example 61, (S)-5-((((5-(4-(2,3-dihydrobenzo[b][1,4]dioxin-6-yl)-1H-indol-1-yl)-3-methoxypyridin-2-yl)methyl)amino)methyl)pyrrolidin-2-one]
[1]
  IC50: > 100 nM

## COc1cc(CNC[C@@H]2CCC(=O)N2)cc(-n2ccc3c(-c4ccc5c(c4)OCCO5)cccc32)c1 [Example 19]
[1]
  IC50: > 100 nM

## COc1cc(-n2ccc3c(-c4ccc5c(c4)OCCO5)cccc32)cc(OC)c1CNCCNC(C)=O [Example 3, N-(2-((4-(4-(2,3-dihydrobenzo[b][1,4]dioxin-6-yl)-1H-indol-1-yl)-2,6-dimethoxybenzyl)amino)ethyl)acetamide]
[1]
  IC50: > 100 nM

## Cc1cc(CN2CC(C)(C(=O)O)C2)cc(-n2ccc3c(-c4ccc5c(c4)OCCO5)cccc32)n1 [Example 86, 1-((2-(4-(2,3-dihydrobenzo[b][1,4]dioxin-6-yl)-1H-indol-1-yl)-6-methylpyridin-4-yl)methyl)-3-methylazetidine-3-carboxylic acid]
[1]
  IC50: > 100 nM

## Cn1c(CN[C@@H](CO)C(=O)O)cc2ccc(-n3ccc4c(-c5ccc6c(c5)OCCO6)cccc43)cc21 [Example 57, (S)-2-(((4-(2,3-dihydrobenzo[b][1,4]dioxin-6-yl)-1′-methyl-1′H-[1,6′-biindol]-2′-yl)methyl)amino)-3-hydroxypropanoic acid]
[1]
  IC50: > 100 nM

## N#Cc1cccc(COc2cc(-n3ccc4c(-c5ccc6c(c5)OCCO6)cccc43)ccc2CNCCO)c1 [Example 6, 3-((5-(4-(2,3-dihydrobenzo[b][1,4]dioxin-6-yl)-1H-indol-1-yl)-2-(((2-hydroxyethyl)amino)methyl)phenoxy)methyl)benzonitrile]
[1]
  IC50: > 100 nM

## O=C(O)[C@H](CO)NCc1ccc(-n2ccc3c(-c4ccc5c(c4)OCCO5)cccc32)nc1 [Example 9]
[1]
  IC50: > 100 nM

## COc1nc(-n2ccc3c(-c4ccc5c(c4)OCCO5)cccc32)cnc1CNC[C@@H]1CCC(=O)N1 [Example 60]
[1]
  IC50: > 100 nM

## COc1cc(-c2cn(C)c3c(-c4ccc5c(c4)OCCO5)cccc23)cc(OC)c1CNC[C@@H]1CCC(=O)N1 [Example 23]
[1]
  IC50: 10 to 100 nM

## COc1cc(-n2ccc3c(-c4cccc(NC(=O)c5ccc(CNC(C)(CO)C(=O)O)cc5)c4C)cccc32)cc(OC)c1CNC(C)(CO)C(=O)O (stereo not drawn) [Example 56, 2-((4-((3-(1-(4-(((2-carboxy-1-hydroxypropan-2-yl)amino)methyl)-3,5-dimethoxyphenyl)-1H-indol-4-yl)-2-methylphenyl)carbamoyl)benzyl)amino)-3-hydroxy-2-methylpropanoic acid]
[1]
  IC50: > 100 nM
